Data set [1] deals with Salmonella enterica serovar Typhimurium (S.Tm) within RAW 264.7 murine macrophages. The experiment in a line: SAFIRE: fluorescence microscopy assay of S.Tm load within macrophages. It is filed as cell-based. To be noted: for hit status in SAFIRE screen: Maybridge HitFinder v11 library screened at 25 μM; for percentage of infected macrophages (validated hit): among the 309 hits. The protocol: A high-content, high-throughput fluorescence microscopy-based screening platform to assay S.Tm load within macrophages was developed (FIG. 1A). RAW 264.7 murine macrophages, a widely used cell line for bacterial infection studies, were infected with bacteria in a standard gentamicin protection assay. The Salmonella expressing GFP driven by the sifB promoter was incubated with the compound beginning at 2 hours post-infection. At 18 hours post-infection, cells were stained with MitoTracker Red CMXRos as a marker of macrophage vitality and processed for fluorescence microscopy. Stained with DAPI. A MATLAB®-based algorithm was developed to quantify infection (FIG. 1B) and compared to statistics to describe infection. Percentage of infected cells was determined by counting the proportion of macrophages within an image with at least 2 GFP+ pixels. Infection area was calculated by normalizing the number of GFP+ pixels within a cell to the cell's total area, then averaging across all cells in an image. To evaluate the approach, 2 μg/ml rifampicin in 96-well and 384-well plates was tested in three independent replicates. The Z′-factor was employed as a measure of assay reproducibility. Numbers close to 1 indicated high reproducibility. For percentage of infected macrophages, the Z′-factor was 0.59 and 0.48 in 96-well and 384-well plates, respectively, compared with 0.66 and 0.38 for infection area. The optimal Z′-factor threshold for high-throughput screening was 0.5; however, values above 0 were considered marginal but feasible. Therefore, the percentage of infected macrophages statistic was used.
The 14,400 compound library Maybridge HitFinder™ v11 was screened, which has been extensively screened against mammalian and microbial targets. The library was screened in duplicate at 25 μM in 384-well plates (FIG. 1C). Data were normalized using the B-score method to remove positional variation. The significance of B-scores was calculated using a modified t-test assuming an inverse gamma distribution of variances. Using a dual threshold of B-score greater than 1 and standard deviation from the mean and p-value less than 0.05, 908 compounds (6.3%) were identified that decreased or increased the percentage of infected macrophages. […] Compounds that altered infection by at least 25% in 96-well plates were considered validated hits.
For high-throughput screening and validation, 7×10^3 macrophages in 40 μL or 3×10^4 macrophages in 100 μL were seeded in 384- or 96-well black-walled, glass-bottomed plates (Brooks Automation). […] Forty-five minutes after bacterial addition, 20 or 50 μL gentamicin was added to a final concentration of 40 μg/mL. […] At 2 hours post-infection, 200 or 500 nL compound was added using a pin tool (CyBio) to yield a final concentration of 25 μM. Each assay plate included rifampicin and DMSO controls. In some experiments, media was removed and replaced with fresh medium containing 40 μg/mL gentamicin and the indicated concentrations of drugs. At 17.5 hours post-infection, PBS containing MitoTracker Red CMXRos (Life Technologies) was added to yield a final concentration of 300 nM (384-well) or 100 nM (96-well). Thirty minutes later, 16% paraformaldehyde was added to a final concentration of 1-2% and incubated at room temperature for 15 minutes. Wells were washed twice with PBS and stained for 20 minutes with 1 μM DAPI; wells were washed twice and stored in 90% glycerol in PBS until imaging.
High magnification images were acquired on an Olympus IX81 inverted widefield microscope. For screening imaging, three-color images were acquired at 10× or 20× on a Cellomics ArrayScan VTI (Thermo) and exported to DIB files. At least two images were taken per well for all experiments. […]

Data set [2] deals with S.Tm efflux pumps. The experiment in a line: Hoechst 33342 accumulation assay. Particulars: wild-type S.Tm, 60 minutes. Format: cell-based, Salmonella enterica serovar Typhimurium. Here is the method: Efflux pumps (EPs) represent a key pathogen virulence strategy to protect against host antimicrobials as well as therapeutic antibiotics. […] To uncover putative EPMs within our collection of hits, 58 repurchased compounds were screened in a Hoechst accumulation assay. Bacteria were incubated with Hoechst 33342, a dye which fluoresces when bound to DNA.
Hoechst accumulation assays were performed essentially as described in the literature. Briefly, overnight Salmonella cultures were washed 3 times in PBS and diluted to an OD of 0.1 in PBS with 2.5 μM Hoechst 33342 in the presence of the indicated concentrations of compounds. Fluorescence was monitored on a Biotek Synergy 2 with a 360/40 nm excitation filter and 460/40 nm emission filter. The maximum Hoechst fluorescence over 60 minutes of incubation was normalized to the signal from the equivalent number of heat-killed bacteria, after subtraction of autofluroescent signal determined from compound incubated in the absence of bacteria. Curve fitting to determine EC50s was performed using GraphPad Prism.

Data set [3] concerns S.Tm efflux pumps. Nature of the data set: Nile Red efflux assay. Format: cell-based, Salmonella enterica serovar Typhimurium. The source says:
Because Hoechst and other dyes commonly used to assess efflux bind cellular components, direct measurement of efflux is not possible using these methods; instead, the Hoechst assay measures dye accumulation, the net result of entry and efflux. Further, the slow off-rate of Hoechst entails that efflux pumps have no effect on dye already bound to DNA. As a result, compounds which increase Hoechst accumulation may actually enhance dye entry by altering porins or disrupting the membrane. To more specifically measure efflux pump activity, a second technique was employed using the dye Nile Red, a lipophilic membrane-partitioning dye which fluoresces in nonpolar environments. Because Nile Red is not known to bind cellular components, to directly observe efflux cells were preloaded with the dye in the absence of glucose to reduce efflux pump activity (FIG. 7A). Upon addition of glucose, bacteria rapidly effluxed Nile Red and fluorescence returned to baseline levels (FIG. 7B, top panel). […] The initial measured fluorescence was lower for DMSO-treated cells (upper dotted line) than for PAβN-treated cells due to glucose-independent efflux during sample preparation (FIG. 8A). Next, it was determined whether efflux pump activity is restored after removal of PAβN. Bacteria were incubated with compound for 15 minutes, pelleted and resuspended in buffer lacking compound, and then stimulated with glucose (FIGS. 7C, 7E).
Nile Red assays were adapted from an established protocol. Briefly, overnight Salmonella cultures were grown in Mueller-Hinton cation-adjusted broth (Sigma), washed, and resuspended at an OD600 of 2.0. Cells were incubated in 10 μM Nile Red for 3 hours at 37° C. with aeration, then moved to room temperature for 1 hour. After pelleting at 2000× g, dye-loaded cells were aliquoted and combined with compound at the indicated concentrations. Two hundred microliters was loaded into 96-well black walled plates (Greiner) and read using a Varioskan Flash Multimode Reader with 540 nm excitation and 625 nm emission filters. We observed that during loading into plates (˜20 minutes), bacteria were able to efflux Nile Red even in the absence of glucose (FIG. 8A). To activate efflux, glucose was added to a final concentration of 2 mM. In some experiments, bacteria were treated with drug for 15 minutes, pelleted at 16,000×g, resuspended in fresh buffer, and stimulated with 2 mM glucose. All wash and incubation steps were performed in PBS with 1 mM MgCl2; incubations were performed in glass tubes to reduce adhesion of Nile Red.

Data set [4] in a line: Log D, solubility and predicted bioavailability. Format: physicochemical. Particulars: high concentrations.
Data set [5] has as its system S.Tm wild-type SL1344, MAR1 and S10801. Nature of the data set: microbe, parasite or virus in culture. Format: cell-based, Salmonella enterica serovar Typhimurium. To be noted: for MIC: Salmonella enterica. Here is the method:
Increased expression or function of efflux pumps often contributes to clinical multidrug resistance. Therefore, whether the EPMs re-sensitize two multidrug resistant strains of S.Tm to tetracycline was tested. Tetracycline is an antibiotic exported by AcrAB. The MAR1 strain is derived from wild-type SL1344 was selected by exposure to tetracycline, and has increased expression of the AcrAB efflux pump. S10801 is an MDR strain isolated from the mesenteric lymph node of a septic calf and is resistant to tetracycline, ampicillin, chloramphenicol, nalidixic acid, and triple sulfa. The basis of multi-drug resistance in this strain is unknown.
Overnight Salmonella cultures were washed 3 times in PBS and diluted to an OD of 0.01 in Mueller Hinton Broth in 96-well flat bottom plates. Compound was added using a pin tool (CyBio) or manually, yielding a final concentration of no more than 1% DMSO. Plates were grown at 37° C. shaking and OD600 was monitored using a BioTek Eon incubator shaker microplate absorbance reader. For experiments in defined media, bacteria were grown in M9 minimal media supplemented with 100 mM Tris pH 7.4, 0.35% glycerol, 0.002% histidine, 10 mM MgCl2, and 0.1% casamino acids. Where indicated, media was supplemented with 5 μg/ml polymyxin B or 0.2 mM H2O2. For experiments with LL-37, bacteria were grown in M9 minimal media supplemented with 0.4% dextrose, 0.004% histidine, 1 mM MgSO4, and 5 μg/ml LL-37. For checkerboard assays, MIC was defined as the concentration at which no growth was visually observed.

Data set [6] relates to S.Tm. The experiment in a line: Swimming assay in soft agar (proton motive force). Format: cell-based, Salmonella enterica serovar Typhimurium. Particulars: 400× the MIC (4 μM). Here is the method:
One way to inhibit efflux pumps is to disrupt the proton motive force, which is required for transport by some EPs. […] Bacteria were injected into the center of 0.25% agar plates, and 10 μl of compound was added to paper disks on the periphery. […] Also ampicillin and rifampicin were tested. We plotted the halo radius versus the concentration as the fold above the MIC (FIG. 9G). […] Next, it was determined whether PAβN inhibited swimming; PAβN is thought to disrupt membranes over long incubations. […] Finally, the EPMs at […] were tested (FIGS. 9D-F).
Saturated overnight cultures were diluted to an OD600 of 0.01 in LB and 1 μL was injected into the center of low agar (0.25%) LB plates. Ten microliters of the indicated compounds were added to sterilized Whatman paper disks (diameter 0.7 cm) placed equidistant from the plate center.

“Also recorded” adds a separate entry of the source. Read-outs that look alike come from different tables or passages of the source. Peptide text beside a SMILES is read from it. * marks the point of attachment. βNA = c1ccc2cc(N*)ccc2c1

On to `CC1(C)S[C@@H]2[C@H](N)C(=O)N2[C@H]1C(=O)O` [6-aminopenicillinate], for which the “activity in the screen” value in data set [1] (25 μM) is listed as “modest activity”. For the same molecule, the “average B-score from the screen” value in data set [1] (25 μM, duplicate, threshold −2.17) is on record as −2.29. Also, the “hit status in SAFIRE screen” value in data set [1] is reported as 6-aminopenicillinate^2.
With `Nc1c2ccccc2nc2ccccc12` [9-aminoacridine], the “percentage of infected macrophages (validated hit)” value in data set [1] (25 μM) is on record as “decreased the percentage of infected macrophages”. For the same molecule, the “hit status in SAFIRE screen” value in data set [1] is reported as 9-aminoacridine^1.
On the same counts, the results for `O=C(N[C@H](CO)[C@H](O)c1ccc([N+](=O)[O-])cc1)C(Cl)Cl` [Chloramphenicol] are “decreased the percentage of infected macrophages” and “Chloramphenicol^1”.
As to `CN(C)CCCN1c2ccccc2CCc2ccc(Cl)cc21` [Clomipramine], the “hit status in SAFIRE screen” value in data set [1] is “Clomipramine^1”.
Regarding `O=C(NC1CCN(CCc2c[nH]c3ccccc23)CC1)c1ccccc1` [Indoramin], the “hit status in SAFIRE screen” value in data set [1] is “Indoramin^1”.
Regarding `Br.NC(N)=NCCCC(NC(=O)C(N)Cc1ccccc1)C(=O)Nc1ccc2ccccc2c1` (stereo not drawn) [PAβN, Phe-Arg β-naphthylamide, reference compound] (H-Phe-Arg-βNA; configuration not given here), the “Hoechst accumulation / fluorescence” value in data set [2] is given as “Hoechst accumulation increased”; in data set [2] (listed as PaβN), “higher levels of fluorescence”. Moreover, the “glucose-activated efflux of Nile Red” value in data set [3] (500 μM) is on record as “inhibited glucose-activated efflux”. Besides, the “Nile Red efflux, dose response” value in data set [3] (7 minutes post-glucose addition) is “dose dependent inhibition of Nile Red efflux; also recorded: reduced the rate and extent of Nile Red export”. The “Nile Red efflux after washout of compound” value in data set [3] (15 minutes with compound, washed, then glucose) is given as “partially restored Nile Red export”. For the same molecule, in data set [3] (no glucose), the “Nile Red fluorescence in the absence of glucose (basal loss)” value was “inhibit basal loss of Nile Red”. For the same molecule, the “solubility in cell culture media” value in data set [4] is reported as “insolubility of high concentrations in cell culture media”. The “decrease of the tetracycline MIC” value in data set [5] (250 μM (⅛ MIC), both strains MAR1 and S10801) was 4 fold.
In the case of `O=C(O)c1cn(C2CC2)c2cc(N3CCNCC3)c(F)cc2c1=O` [ciprofloxacin, reference compound], the “halo in swimming assay” value in data set [6] is recorded as “formed a halo similar in size to that of CCCP”.
As to `CN(C)[C@@H]1C(O)=C(C(N)=O)C(=O)[C@@]2(O)C(O)=C3C(=O)c4c(O)cccc4[C@@](C)(O)[C@H]3C[C@@H]12` [tetracycline], the results for the “increase in tetracycline MIC over wild type” value in data set [5] (MAR1) and in data set [5] (S10801) were 2 fold and 64 fold, respectively. Besides, the MIC in data set [5] (read-out: tetracycline MIC, MAR1) amounted to 4 µg/mL; in data set [5] (read-out: tetracycline MIC, S10801), 128 µg/mL; in data set [5] (read-out: tetracycline MIC, wild-type S.Tm) it was 2 µg/mL.

Source of the values: US11110080B2, “Small molecule inhibitors of bacterial efflux pumps and methods of using same” (The Regents of the University of Colorado, a body Corporate, priority 2017, dated 2021).
